ChEMBL document CHEMBL1146080, “Novel, achiral 1,3,4-benzotriazepine analogues of 1,4-benzodiazepine-based CCK(2) antagonists that display high selectivity over CCK(1) receptors” (J Med Chem, 2006)
The source made the active and inactive calls. The rule behind the calls is not given here.

Columns and labels:
[1] = target: T1, Cholecystokinin receptor type A (Homo sapiens, UniProt P32238); test: Displacement of [3H]L-364718 from human recombinant CCK1 receptor expressed in CHO cell line; type: cell-based
T1 sequence (P32238 whole entry): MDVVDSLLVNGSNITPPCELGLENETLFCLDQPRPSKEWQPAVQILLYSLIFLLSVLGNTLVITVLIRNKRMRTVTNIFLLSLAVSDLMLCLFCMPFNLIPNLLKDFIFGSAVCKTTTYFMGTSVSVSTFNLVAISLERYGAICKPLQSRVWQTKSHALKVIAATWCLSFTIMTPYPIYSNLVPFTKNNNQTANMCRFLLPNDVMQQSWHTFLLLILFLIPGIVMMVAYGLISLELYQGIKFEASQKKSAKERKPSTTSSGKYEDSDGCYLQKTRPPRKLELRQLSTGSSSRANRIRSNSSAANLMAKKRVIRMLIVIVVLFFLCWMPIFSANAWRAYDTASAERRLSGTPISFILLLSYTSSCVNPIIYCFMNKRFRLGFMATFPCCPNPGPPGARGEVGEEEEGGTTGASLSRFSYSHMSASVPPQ

[2] = target: T2, Gastrin/cholecystokinin type B receptor (Homo sapiens, UniProt P32239); test: Displacement of [125I]BH-CCK-8S from human recombinant CCK2 receptor expressed in NIH3T3 cells; type: cell-based
T2 sequence (P32239 whole entry): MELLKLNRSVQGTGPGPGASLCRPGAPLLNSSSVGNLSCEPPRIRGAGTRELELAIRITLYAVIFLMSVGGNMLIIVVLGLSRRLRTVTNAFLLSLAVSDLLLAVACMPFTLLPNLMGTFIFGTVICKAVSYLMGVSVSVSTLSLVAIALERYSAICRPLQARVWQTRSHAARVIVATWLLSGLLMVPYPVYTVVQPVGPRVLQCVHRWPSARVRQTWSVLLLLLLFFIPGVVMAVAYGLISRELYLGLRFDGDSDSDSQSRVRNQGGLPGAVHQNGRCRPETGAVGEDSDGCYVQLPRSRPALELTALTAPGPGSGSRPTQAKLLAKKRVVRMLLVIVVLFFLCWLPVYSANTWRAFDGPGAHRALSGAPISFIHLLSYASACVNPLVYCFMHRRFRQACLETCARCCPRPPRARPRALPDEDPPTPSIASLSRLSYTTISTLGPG

[3] = target: T3, Cholecystokinin receptor type A (Homo sapiens) (UniProt P32238); test: Inhibition of [3H]L-364718 binding to human recombinant CCK1 receptor expressed in PC3 cell line at 10 uM; type: cell-based; details: PC-3
T3 sequence (whole entry): T1 sequence (P32238 whole entry)

[4] = target: T4, Gastrin/cholecystokinin type B receptor (Rattus norvegicus) (UniProt P30553); test: Affinity for CCK2 receptor assessed by inhibition of pentagastrin-stimulated acid secretion in perfused rat stomach at 1 uM; type: functional, tissue-based
T4 sequence (whole entry): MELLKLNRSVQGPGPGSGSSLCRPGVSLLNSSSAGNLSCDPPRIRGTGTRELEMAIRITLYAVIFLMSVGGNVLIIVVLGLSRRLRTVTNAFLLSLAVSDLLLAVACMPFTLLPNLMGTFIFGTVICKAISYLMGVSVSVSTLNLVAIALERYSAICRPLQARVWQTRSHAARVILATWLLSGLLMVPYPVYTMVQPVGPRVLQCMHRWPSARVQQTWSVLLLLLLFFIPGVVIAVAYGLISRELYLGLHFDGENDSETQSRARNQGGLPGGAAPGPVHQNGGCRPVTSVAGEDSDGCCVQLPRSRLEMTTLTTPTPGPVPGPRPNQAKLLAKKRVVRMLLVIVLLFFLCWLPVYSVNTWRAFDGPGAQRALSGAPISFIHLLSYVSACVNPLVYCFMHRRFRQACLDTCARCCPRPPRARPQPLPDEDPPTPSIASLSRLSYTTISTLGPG

[5] = target: T3, Cholecystokinin receptor type A (Homo sapiens); test: Inhibition of [3H]L-364718 binding to human recombinant CCK1 receptor expressed in CHO cell line at 10 uM; type: cell-based
[6] = target: T1, Cholecystokinin receptor type A; test: Displacement of [3H]L-364718 from human recombinant CCK1 receptor expressed in PC3 cell line; type: cell-based, PC-3
[7] = target: T5, Gastrin/cholecystokinin type B receptor (Rattus norvegicus, UniProt P30553); test: Affinity for CCK2 receptor assessed by inhibition of pentagastrin-stimulated acid secretion in perfused rat stomach; type: functional, tissue-based; details: read-out: pA2 (converted)
T5 sequence (P30553 whole entry): T4 sequence (whole entry)

[8] = target: T6, Gastrin/cholecystokinin type B receptor (Canis lupus familiaris, UniProt P30552); test: Binding affinity to canine CCK2 receptor
T6 sequence (P30552 whole entry): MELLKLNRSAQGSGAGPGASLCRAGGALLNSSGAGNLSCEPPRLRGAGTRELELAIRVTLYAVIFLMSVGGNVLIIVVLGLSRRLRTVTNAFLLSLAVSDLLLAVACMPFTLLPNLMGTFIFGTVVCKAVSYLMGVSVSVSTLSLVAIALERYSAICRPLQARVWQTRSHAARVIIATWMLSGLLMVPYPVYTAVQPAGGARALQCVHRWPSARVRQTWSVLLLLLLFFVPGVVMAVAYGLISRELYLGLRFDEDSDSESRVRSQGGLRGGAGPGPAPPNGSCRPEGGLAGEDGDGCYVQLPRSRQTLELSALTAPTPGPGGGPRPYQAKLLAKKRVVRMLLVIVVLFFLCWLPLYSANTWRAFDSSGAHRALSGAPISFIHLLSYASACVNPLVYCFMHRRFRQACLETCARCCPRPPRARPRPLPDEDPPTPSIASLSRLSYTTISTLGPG

Compound `CC(C)(C)C(=O)CN1C(=O)N(CC(=O)Nc2cccc(O)c2)N=C(C2CCCCC2)c2ccccc21` has a Ki [1] of 1510 nM and a Ki [2] of 13.2 nM.

For `CNc1cccc(NC(=O)CN2N=C(c3ccccn3)c3ccccc3N(CC(=O)N3CCCC3)C2=O)c1`, the Ki [2] was 2510 nM.

In the case of `Cc1cccc(NC(=O)CN2N=C(C3CCCCC3)c3ccccc3N(CC(=O)C(C)(C)C)C2=O)c1`, the inhibition [3] is reported as 27%, the pA2 [4] is reported as “inactive” and the Ki [2] is reported as 8.91 nM.

For `CN(C)c1cccc(NC(=O)CN2N=C(C3CCCCC3)c3ccccc3N(CC(=O)C(C)(C)C)C2=O)c1`, the inhibition [3] was 16% and the Ki [2] was 6.03 nM.

`CC(C)(C)C(=O)CN1C(=O)N(CC(=O)Nc2cccc(-n3ccnc3)c2)N=C(C2CCCCC2)c2ccccc21` gave a Ki [2] of 9.12 nM and an inhibition [5] of 57%.

`CC(C)(C)C(=O)CN1C(=O)N(CC(=O)Nc2cccc(CO)c2)N=C(C2CCCCC2)c2ccccc21` showed a Ki [6] of 5890 nM and a Ki [2] of 15.1 nM.

With `CC(C)(C)C(=O)CN1C(=O)N(CC(=O)Nc2cccc(N3CCCC3)c2)N=C(C2CCCCC2)c2ccccc21` the Ki [6] was over 10000 nM and the Ki [2] was 15.8 nM.

Compound `Cc1cccc(NC(=O)N[C@@H]2N=C(c3ccccc3)c3ccccc3N(C)C2=O)c1` [L-365260] has a Ki [6] of 174 nM.

With `COc1cccc(NC(=O)CN2N=C(C3CCCCC3)c3ccccc3N(CC(=O)C(C)(C)C)C2=O)c1` the pA2 [4] was “inactive”, the Ki [2] was 5.5 nM and the inhibition [5] was 46%.

`CNc1cccc(NC(=O)CN2N=C(c3ccccn3)c3ccccc3N(CC(=O)c3ccccc3C)C2=O)c1` was tested, and the Ki [2] was 288 nM.

Compound `CNc1cccc(NC(=O)N[C@@H]2N=C(c3ccccn3)c3ccccc3N(CC(=O)C(C)(C)C)C2=O)c1` [NETAZEPIDE] has a Kb [7] of 0.0794 nM, a Ki [6] of 30.2 nM and a Ki [2] of 0.138 nM.

`CNc1cccc(NC(=O)CN2N=C(c3ccccc3)c3ccccc3N(CC(=O)C(C)(C)C)C2=O)c1` gave an inhibition [3] of 21% and a Ki [2] of 74.1 nM.

`CNc1cccc(NC(=O)CN2N=C(C3CCCCC3)c3ccccc3N(CC(=O)C(C)(C)C)C2=O)c1` was tested, and the Ki [6] was over 10000 nM and the Ki [2] was 7.94 nM.

Compound `CNc1cccc(NC(=O)C[C@@H]2N=C(C3CCCCC3)c3ccccc3N(CC(=O)C(C)(C)C)C2=O)c1` has a Kb [7] of 28.2 nM, a Ki [6] of 1170 nM and a Ki [2] of 6.03 nM.

For `CC(C)(C)C(=O)CN1C(=O)N(CC(=O)Nc2cccc(N3CCOCC3)c2)N=C(C2CCCCC2)c2ccccc21`, the Ki [2] was 16.6 nM and the inhibition [5] was 42%.

Work on `CNc1cccc(NC(=O)C[C@H]2N=C(C3CCCCC3)c3ccccc3N(CC(=O)C(C)(C)C)C2=O)c1` yielded a Kb [7] of 28.8 nM, a Ki [6] of 724 nM and a Ki [2] of 13.2 nM.

For `CNCCN(C)c1cccc(NC(=O)CN2N=C(C3CCCCC3)c3ccccc3N(CC(=O)C(C)(C)C)C2=O)c1`, the Ki [1] was 8710 nM and the Ki [2] was 29.5 nM.

`CNc1cccc(NC(=O)CN2N=C(c3ccccn3)c3ccccc3N(CC(=O)C(C)(C)C)C2=O)c1` showed an inhibition [3] of 22%, a Kb [7] of 224 nM and a Ki [2] of 195 nM.

`CC(C)(C)C(=O)CN1C(=O)N(CC(=O)Nc2cccc(N)c2)N=C(C2CCCCC2)c2ccccc21` was tested, and the Ki [2] was 26.9 nM and the inhibition [5] was 40%.

Work on `CCOCCNc1cccc(NC(=O)CN2N=C(C3CCCCC3)c3ccccc3N(CC(=O)C(C)(C)C)C2=O)c1` yielded a Ki [6] of over 10000 nM and a Ki [2] of 44.7 nM.

With `CC(C)(C)C(=O)CN1C(=O)N(CC(=O)Nc2cccc(C(=O)O)c2)N=C(C2CCCCC2)c2ccccc21` the Ki [8] was 12.3 nM, the Kb [7] was 0.977 nM and the Ki [6] was 11200 nM. For the same compound, the Ki [2] was 5.13 nM.
